Key:
mice [1] = details: after first five days of compound c; FIG. 10
Excerpt: Following the first five days of administration of compound c, behavioural determinations were made in order to evaluate the symptoms. […] Another symptom associated with pain in fibromyalgia is depression.
Depression test: Tail suspension, forced swimming.

AMPK phosphorylation = test: Mouse model of AMPK activation deficiency induced by compound C: biochemical parameters; type: in vivo, mice of the Swiss strain; details: for ATP (deficit) / citrate synthase (mitochondrial mass) / lipid peroxidation / activation of IL-1β interleukin of the inflammasome / activation of IL-18 interleukin of the inflammasome: mice, compound C 20 mg/kg/day i.p., alone or with metformin; for ATP (deficit): FIG. 5; for citrate synthase (mitochondrial mass): FIG. 6; for lipid peroxidation / activation of IL-1β interleukin of the inflammasome / activation of IL-18 interleukin of the inflammasome: serum; for lipid peroxidation: FIG. 7; for activation of IL-1β interleukin of the inflammasome / activation of IL-18 interleukin of the inflammasome: FIG. 8
Method: The mice were injected by intraperitoneal route once a day, the final daily dose being 20 mg/kg/day. Another group of mice received the treatment with Compound C in addition to Metformin. The treatment is performed until the day the animals are sacrificed. […]
Blood: The blood will be the starting-point to obtain serum or isolate leukocytes. The following will be measured in the serum: glucose, triglycerides, cholesterol, lactate, proteins, redox potential, protein oxidation, etc. The following will be measured in the leukocytes: ATP, inflammatory interleukins, oxidative stress, mitochondrial mass.

mice [2] = test: Symptoms of fibromyalgia (pain, depression) in mice with AMPK inhibited by compound c; type: in vivo; details: then metformin
Excerpt: In order to monitor the effect of metformin in an in vivo model of AMPK deficit, we will use mice that will be administered compound c, a specific inhibitor of AMPK phosphorylation, in time, and their behaviour will be characterised one week before starting the administrations of compound c and 7 days after the first administration. […] Prior to beginning the administration of compound c and metformin, and following the pain behaviour tests, other behavioural tests will be conducted which show other symptoms presented by patients with fibromyalgia: […]

mice [3] = test: Hot-plate test (nociception) in mice; type: in vivo; details: after first five days of compound c; at Temp.<50° C. and Temp.>50° C.; FIG. 9
Excerpt: Another symptom associated with pain in fibromyalgia is depression.
In order to monitor the effect of metformin in an in vivo model of AMPK deficit, we will use mice that will be administered compound c, a specific inhibitor of AMPK phosphorylation, in time, and their behaviour will be characterised one week before starting the administrations of compound c and 7 days after the first administration. This experimental design will provide us with a view as to how metformin inhibits the effects induced by the deficit of AMPK and its influence on the behaviour of the mice, monitoring, with particular interest, those tests that show an alteration of nociception (hot plate, visceral pain [J Neurochem (2007) 103: 2629-39] and muscle pain [J Neurosci (2007) 27: 10000-6]). Prior to beginning the administration of compound c and metformin, and following the pain behaviour tests, other behavioural tests will be conducted which show other symptoms presented by patients with fibromyalgia: […]

[4] = neuropathic pain (Russe et al., 2013), adiposis dolorosa (Labuzek et al., 2013); cited from earlier work
[5] = test system: inflammasome (IL-1β, IL-18) in BMCs of patients with fibromyalgia; test: IL-1β and IL-18 inflammasome interleukins in cells of fibromyalgia patients; type: cell-based, human
Excerpt: (§1) In order to study the role of AMPK phosphorylation in patients with fibromyalgia, AMPK activation was induced with metformin, a potent AMPK stimulator, in the BMCs of 20 patients.
(§2) In order to evaluate the effect of metformin in in vitro models of fibromyalgia, we will use mononuclear cells isolated from patients with fibromyalgia and kept under culture conditions, with RPMI medium with 10% serum and 5% CO2. Parallel to this, skin fibroblasts isolated from patients with fibromyalgia kept under culture with DMEM medium with 20% serum and 5% CO2 will be used. These cultures will enable us to evaluate the toxicity of different doses of metformin and compounds that induce AMPK phosphorylation, through the quantification of apotosis and cell growth, by counting the nuclei of live cells. Once the ideal working dose has been found, below 5 mM, we will be able to quantify the protection against stressful stimuli through the effect of hydrogen peroxide, a very potent free radical. Using flow cytometry, we will evaluate the production of ROS before and after the treatment below 5 mM. Other parameters to be quantified at these doses will be ATP, by means of luminometry, citrate synthase as a marker of mitochondrial mass, by means of enzyme kinetics spectrophotometry, and inflammatory interleukins by means of ELISA.

[6] = test system: blood mononuclear cells (BMCs) of patients with fibromyalgia; details: BMCs of 20 fibromyalgia patients after metformin
Excerpt: as §1, §2

[7] = test system: fibroblasts of patients with fibromyalgia; test: Protection of patient fibroblasts exposed to hydrogen peroxide (cell death); type: cell-based, human; details: low doses of hydrogen peroxide with metformin added, FIG. 4
Method: Parallel to this, skin fibroblasts isolated from patients with fibromyalgia kept under culture with DMEM medium with 20% serum and 5% CO2 will be used. […] Once the ideal working dose has been found, below 5 mM, we will be able to quantify the protection against stressful stimuli through the effect of hydrogen peroxide, a very potent free radical. Using flow cytometry, we will evaluate the production of ROS before and after the treatment below 5 mM. Other parameters to be quantified at these doses will be ATP, by means of luminometry, citrate synthase as a marker of mitochondrial mass, by means of enzyme kinetics spectrophotometry, and inflammatory interleukins by means of ELISA.

[8] = BMCs of fibromyalgia patients after metformin, FIG. 3

SMILES: c1cc(-c2cnn3cc(-c4ccc(OCCN5CCCCC5)cc4)cnc23)ccn1 [compound c]
- paralysis (immobilisation) in tail suspension test, reflecting depression (mice [1]): greater paralysis
- ATP (deficit) (AMPK phosphorylation): induced alterations
- citrate synthase (mitochondrial mass) (AMPK phosphorylation): induced alterations
- lipid peroxidation (AMPK phosphorylation): induced alterations
- activation of IL-1β interleukin of the inflammasome (AMPK phosphorylation): induced alterations
- activation of IL-18 interleukin of the inflammasome (AMPK phosphorylation): induced alterations
- symptoms typical of fibromyalgia, such as pain or depression (mice [2]): presented symptoms typical of fibromyalgia
- response latency to the thermal stimulus (hot-plate test) (mice [3]): decrease in the response latency

SMILES: CN(C)C(=N)N=C(N)N [metformin]
- analgesic effect [4]: strong analgesic effect
- IL-1β interleukin of the inflammasome [5, 8]: decrease
- IL-18 interleukin of the inflammasome [5, 8]: decrease
- inhibition of the inflammasome ([5]; cells of patients with fibromyalgia): demonstrated inhibition of the inflammasome
- ATP levels ([6]; FIG. 1): significant recovery
- mitochondrial ROS ([6]; FIG. 2): decrease
- cell death [7]: significantly reduced
- inhibition of the inflammasome (AMPK phosphorylation; mice with inhibited AMPK): demonstrated inhibition of the inflammasome
- ATP (deficit) (AMPK phosphorylation): restored
- citrate synthase (mitochondrial mass) (AMPK phosphorylation): restored
- lipid peroxidation (AMPK phosphorylation): restored
- activation of IL-1β interleukin of the inflammasome (AMPK phosphorylation): restored
- activation of IL-18 interleukin of the inflammasome (AMPK phosphorylation): restored
- symptoms typical of fibromyalgia, such as pain or depression (mice [2]): recovery in the symptoms
